# From US11096985B2, “Antimicrobial peptides, their variants and uses” (priority 2015, dated 2021)
# Where a SMILES comes first, the peptide text is derived from it. [ ]: non-standard residue; d: D form.
# Experiments:
# [1] = system: clinical strains of Klebsiella pneumoniae; assay: MIC, clinical strains of K. pneumoniae; format: cell-based; design: unit: μg/ml; details: microdilution, Muller Hinton broth-cation adjusted, 0.02% BSA, 0.2% acetic acid
# In short: (§1)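 MH broth; 5.0×10^5 cfu/ml; peptides 0.125–128 μg/ml; 37° C., 20–24 h; visual no-growth endpoint. Fungal MICs in potato dextrose broth.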
# [2] = system: clinical strains of Staphylococcus aureus; assay: MIC, clinical strains of S. aureus; format: cell-based; design: unit: μg/ml; details: microdilution, Muller Hinton broth-cation adjusted, 0.02% BSA, 0.2% acetic acid
# In short: as §1
# [3] = system: clinical strains of C. glabrata; assay: MIC, clinical yeast strains, C. glabrata; format: cell-based, Candida glabrata; design: unit: μg/ml
# In short: as §1
# [4] = system: clinical strains of Escherichia coli; assay: MIC, clinical strains of E. coli; format: cell-based; design: unit: μg/ml; details: microdilution, Muller Hinton broth-cation adjusted, 0.02% BSA, 0.2% acetic acid
# In short: as §1
# [5] = system: clinical strains of Proteus mirabilis; assay: MIC, clinical strains of Proteus mirabilis; format: cell-based; design: unit: µg/mL; details: microdilution, Muller Hinton broth-cation adjusted, 0.02% BSA, 0.2% acetic acid
# In short: as §1
# [6] = system: clinical strains of C. parapsilosis; assay: MIC, clinical yeast strains, C. parapsilosis; format: cell-based, Candida parapsilosis; design: unit: μg/ml
# In short: as §1
# [7] = system: clinical strains of Candida albicans; assay: MIC, clinical yeast strains, Candida albicans; format: cell-based; design: unit: μg/ml
# In short: as §1
# [8] = system: clinical strains of Pseudomonas aeruginosa; assay: MIC, clinical strains of P. aeruginosa; format: cell-based; design: unit: μg/ml; details: microdilution, Muller Hinton broth-cation adjusted, 0.02% BSA, 0.2% acetic acid
# In short: as §1
# [9] = system: clinical strains of Serratia marcescens; assay: MIC, clinical strains of Serratia marcescens; format: cell-based; design: unit: µg/mL; details: microdilution, Muller Hinton broth-cation adjusted, 0.02% BSA, 0.2% acetic acid
# In short: as §1
# [10] = system: clinical strains of Acinetobacter baumannii; assay: MIC, clinical strains of Acinetobacter baumannii; format: cell-based; details: microdilution, Muller Hinton broth-cation adjusted, 0.02% BSA, 0.2% acetic acid
# Protocol: Minimum inhibition concentrations (MICs) were determined against Escherichia coli (ATCC 25922), Staphylococcus aureus (ATCC 25923), Klebsiella pneumoniae (ATCC 10031) and Pseudomonas aeruginosa (ATCC 27853). Also clinical strains of E. coli, K. pneumoniae, E. cloacae, P. aeruginosa, Serratia marcescens, Proteus mirabilis, S. pneumoniae, Acinetobacter baumannii, A. johnsonii and S. aureus were used for MICs assays. Additionally, clinical strains of yeast including Candida albicans, C. glabrata, C. parapsilosis and C. quillermondiae were used. The susceptibility of these microorganisms to Chain peptides were determined using micro broth dilution assay. Colonies of the respective microorganism from Muller Hinton (MH) agar plates incubated overnight were suspended in MH broth media and final concentration of microorganism was adjusted to 5.0×10^5 cfu/ml. An aliquot of 10 μl of each Chain peptide, or gentamicin, tetracycline as reference antibiotics were added in differing concentrations along with 90 μl of bacterial suspension to 96 well polypropylene plates and incubated at 37° C. for 20 to 24 hours. Concentrations of Chain peptides and reference antibiotics ranged from 0.125 to 128 μg/ml and the MICs were recorded as the lowest concentration with no visual growth of bacteria. Similarly, antifungal MICs were tested in Potato dextrose broth.
# Clinical strains of yeasts including Candida albicans, C. glabrata, C. parapsilosis and C. quillermondiae were also tested with the 12 Chain peptides. The minimum inhibitory concentration (MICs) varied between these peptides and are presented in Tables 4a, 4b, 4c and 5a, 5b, 5c. Peptides Chain 105, 201 and 308 are broad spectrum antimicrobials with MICs between 0.5-32 μg/ml against all the bacteria and yeasts tested, except Serratia marcescens and Proteus mirabilis, against which the MICs were between 64-128 μg/ml. Peptide Chain 306 has narrow spectrum activity against E.coli at 1 μg/ml and for the rest of the bacterial strains at >32 μg/ml (FIG. 10).
# [11] = system: clinical strains of C. quillermondiae; assay: MIC, clinical yeast strains, C. quillermondiae; format: cell-based; details: C. quillermondiae clinical yeast strain 1
# In short: as §1
# [12] = system: clinical strains of Enterobacter cloacae; assay: MIC, clinical strains of Enterobacter cloacae; format: cell-based; design: unit: μg/ml; details: microdilution, Muller Hinton broth-cation adjusted, 0.02% BSA, 0.2% acetic acid
# In short: as §1
# [13] = system: clinical strains of Streptococcus pneumoniae; assay: MIC, clinical strains of Streptococcus pneumoniae; format: cell-based; design: unit: µg/mL; details: microdilution, Muller Hinton broth-cation adjusted, 0.02% BSA, 0.2% acetic acid
# In short: as §1
smiles,measurement,setting,value
CC[C@@H](C)[C@@H](NC(=O)[C@@H](CC(C)C)NC(=O)[C@@H](CCCNC(=N)N)NC(=O)[C@H](N)CCCNC(=N)N)C(=O)N[C@H](Cc1c[nH]c2ccccc12)C(=O)N[C@H](CCCNC(=N)N)C(=O)N[C@H](CCCNC(=N)N)C(=O)N[C@H](Cc1ccccc1)C(=O)N[C@H](CCCCN)C(=O)N[C@H](Cc1c[nH]c2ccccc12)C(=O)N[C@H](CC(C)C)C(=O)N[C@H](CCCNC(=N)N)C(=O)O [Chain204D] (H-[dR][dR][dL][dI][dW][dR][dR][dF][dK][dW][dL][dR]-OH),Minimum inhibitory concentration,[1]; Klebsiella pneumoniae clinical strain 1,8
same,Minimum inhibitory concentration,[1]; Klebsiella pneumoniae clinical strain 2,4
same,Minimum inhibitory concentration,[1]; Klebsiella pneumoniae clinical strain 3,16
same,Minimum inhibitory concentration,[1]; Klebsiella pneumoniae clinical strain 4,4
same,Minimum inhibitory concentration,[1]; Klebsiella pneumoniae clinical strain 5,2
same,Minimum inhibitory concentration,[2]; Staphylococcus aureus clinical strain 1,1
same,Minimum inhibitory concentration,[2]; Staphylococcus aureus clinical strain 2,2
same,Minimum inhibitory concentration,[2]; Staphylococcus aureus clinical strain 3,2
same,Minimum inhibitory concentration,[2]; Staphylococcus aureus clinical strain 4,1
same,Minimum inhibitory concentration,[2]; Staphylococcus aureus clinical strain 5,1
same,Minimum inhibitory concentration,[3]; C. glabrata clinical yeast strain 1,4
same,Minimum inhibitory concentration,[3]; C. glabrata clinical yeast strain 2,8
same,Minimum inhibitory concentration,[3]; C. glabrata clinical yeast strain 3,32
same,Minimum inhibitory concentration,[3]; C. glabrata clinical yeast strain 4,32
same,Minimum inhibitory concentration,[4]; Escherichia coli clinical strain 1,8
same,Minimum inhibitory concentration,[4]; Escherichia coli clinical strain 2,1
same,Minimum inhibitory concentration,[4]; Escherichia coli clinical strain 3,1
same,Minimum inhibitory concentration,[4]; Escherichia coli clinical strain 4,1
same,Minimum inhibitory concentration,[4]; Escherichia coli clinical strain 5,1
same,Minimum inhibitory concentration,[5]; Proteus mirabilis clinical strain 1,>128
same,Minimum inhibitory concentration,[5]; Proteus mirabilis clinical strain 2,32
same,Minimum inhibitory concentration,[5]; Proteus mirabilis clinical strain 3,64
same,Minimum inhibitory concentration,[5]; Proteus mirabilis clinical strain 4,>128
same,Minimum inhibitory concentration,[5]; Proteus mirabilis clinical strain 5,>128
same,Minimum inhibitory concentration,[6]; C. parapsilosis clinical yeast strain 1,4
same,Minimum inhibitory concentration,[6]; C. parapsilosis clinical yeast strain 2,4
same,Minimum inhibitory concentration,[6]; C. parapsilosis clinical yeast strain 3,8
same,Minimum inhibitory concentration,[6]; C. parapsilosis clinical yeast strain 4,8
same,Minimum inhibitory concentration,[7]; Candida albicans clinical yeast strain 1,8
same,Minimum inhibitory concentration,[7]; Candida albicans clinical yeast strain 2,8
same,Minimum inhibitory concentration,[7]; Candida albicans clinical yeast strain 3,8
same,Minimum inhibitory concentration,[7]; Candida albicans clinical yeast strain 4,8
same,Minimum inhibitory concentration,[7]; Candida albicans clinical yeast strain 5,8
same,Minimum inhibitory concentration,[8]; Pseudomonas aeruginosa clinical strain 1,4
same,Minimum inhibitory concentration,[8]; Pseudomonas aeruginosa clinical strain 2,16
same,Minimum inhibitory concentration,[8]; Pseudomonas aeruginosa clinical strain 3,8
same,Minimum inhibitory concentration,[8]; Pseudomonas aeruginosa clinical strain 4,8
same,Minimum inhibitory concentration,[8]; Pseudomonas aeruginosa clinical strain 5,4
same,Minimum inhibitory concentration,[9]; Serratia marcescens clinical strain 1,>128
same,Minimum inhibitory concentration,[9]; Serratia marcescens clinical strain 2,>128
same,Minimum inhibitory concentration,[9]; Serratia marcescens clinical strain 3,128
same,Minimum inhibitory concentration,[9]; Serratia marcescens clinical strain 4,>128
same,Minimum inhibitory concentration,[9]; Serratia marcescens clinical strain 5,>128
same,Minimum inhibitory concentration,[10]; Acinetobacter baumannii clinical strain 1,4
same,Minimum inhibitory concentration,[10]; Acinetobacter baumannii clinical strain 2,4
same,Minimum inhibitory concentration,[10]; Acinetobacter baumannii clinical strain 3,4
same,Minimum inhibitory concentration,[10]; Acinetobacter baumannii clinical strain 4,4
same,Minimum inhibitory concentration,[10]; Acinetobacter baumannii clinical strain 5,4
same,Minimum inhibitory concentration,[11],4
same,Minimum inhibitory concentration,[12]; Enterobacter cloacae clinical strain 1,4
same,Minimum inhibitory concentration,[12]; Enterobacter cloacae clinical strain 2,8
same,Minimum inhibitory concentration,[12]; Enterobacter cloacae clinical strain 3,4
same,Minimum inhibitory concentration,[12]; Enterobacter cloacae clinical strain 4,8
same,Minimum inhibitory concentration,[12]; Enterobacter cloacae clinical strain 5,2
same,Minimum inhibitory concentration,[13]; Streptococcus pneumoniae clinical strain 1,4
same,Minimum inhibitory concentration,[13]; Streptococcus pneumoniae clinical strain 2,4
same,Minimum inhibitory concentration,[13]; Streptococcus pneumoniae clinical strain 3,4
same,Minimum inhibitory concentration,[13]; Streptococcus pneumoniae clinical strain 4,4
same,Minimum inhibitory concentration,[13]; Streptococcus pneumoniae clinical strain 5,4
